What was measured:
α2δ-3 subunit = α2δ-3 subunit (Homo sapiens, UniProt Q8IZS8); settings: Marais et al. 2001; cited from earlier work
α2δ-2 subunit = α2δ-2 subunit (Homo sapiens, UniProt Q9NY47); settings: Marais et al. 2001; cited from earlier work
[1] = tested on: α2δ-3 expression in cultured rat atrial myocytes; settings: Chu 2003; cited from earlier work
[2] = tested on: rat α1B+β1b Ca2+ channel (N-type calcium channel); assay: Whole-cell patch clamp current density of rat α1B+β1b channels with coexpressed α2δ-2 in transfected HEK 293 cells; type: cell-based
Method: Human embryonic kidney cells, HEK 293 (ATCC# CRL 1573) or HEK 293 tsA 201, were grown in standard DMEM medium supplemented with 4 mM glutamine and 10% fetal bovine serum. The rat α2δ-2 construct was transfected into HEK 293 or HEK 293 tsA 201 cells with equimolar concentration of the subunits α1B (N-type calcium channel) and β1b, using lipofectamine (Gibco/Invitrogen) according to the manufacturer's instructions. pEGFP was included in the transfected cDNA at 3-5 times less the molar concentration to detect transfected cells and to determine the efficiency of transfection. Transfected cells were incubated at 37° C., 5% CO2, for 6-24 hours and then placed at 29° C., 5% CO2.
After an incubation period of 24 to 72 hours, the culture medium was removed and replaced with an external recording solution containing (in mM) 5 BaCl, 129 CsCl, 1 MgCl2, 10 HEPES, 10 glucose, pH 7.4 with CsOH. Whole-cell patch clamp recordings were made with an Axopatch 200B amplifier (Axon Instruments, USA). […] Signals were acquired at 2.02 kHz and analyzed offline using pClamp 8.2 (Axon Instruments, USA) and Origin (OriginLab Corporation, USA) software. […]
Mean current density was recorded for 4 cells transfected with rat α1B+β1b only and for 7 cells that were also cotransfected with rat brain α2δ-2 subunit. […]

α2δ-2 subunit, sequence (Q9NY47 19-1150): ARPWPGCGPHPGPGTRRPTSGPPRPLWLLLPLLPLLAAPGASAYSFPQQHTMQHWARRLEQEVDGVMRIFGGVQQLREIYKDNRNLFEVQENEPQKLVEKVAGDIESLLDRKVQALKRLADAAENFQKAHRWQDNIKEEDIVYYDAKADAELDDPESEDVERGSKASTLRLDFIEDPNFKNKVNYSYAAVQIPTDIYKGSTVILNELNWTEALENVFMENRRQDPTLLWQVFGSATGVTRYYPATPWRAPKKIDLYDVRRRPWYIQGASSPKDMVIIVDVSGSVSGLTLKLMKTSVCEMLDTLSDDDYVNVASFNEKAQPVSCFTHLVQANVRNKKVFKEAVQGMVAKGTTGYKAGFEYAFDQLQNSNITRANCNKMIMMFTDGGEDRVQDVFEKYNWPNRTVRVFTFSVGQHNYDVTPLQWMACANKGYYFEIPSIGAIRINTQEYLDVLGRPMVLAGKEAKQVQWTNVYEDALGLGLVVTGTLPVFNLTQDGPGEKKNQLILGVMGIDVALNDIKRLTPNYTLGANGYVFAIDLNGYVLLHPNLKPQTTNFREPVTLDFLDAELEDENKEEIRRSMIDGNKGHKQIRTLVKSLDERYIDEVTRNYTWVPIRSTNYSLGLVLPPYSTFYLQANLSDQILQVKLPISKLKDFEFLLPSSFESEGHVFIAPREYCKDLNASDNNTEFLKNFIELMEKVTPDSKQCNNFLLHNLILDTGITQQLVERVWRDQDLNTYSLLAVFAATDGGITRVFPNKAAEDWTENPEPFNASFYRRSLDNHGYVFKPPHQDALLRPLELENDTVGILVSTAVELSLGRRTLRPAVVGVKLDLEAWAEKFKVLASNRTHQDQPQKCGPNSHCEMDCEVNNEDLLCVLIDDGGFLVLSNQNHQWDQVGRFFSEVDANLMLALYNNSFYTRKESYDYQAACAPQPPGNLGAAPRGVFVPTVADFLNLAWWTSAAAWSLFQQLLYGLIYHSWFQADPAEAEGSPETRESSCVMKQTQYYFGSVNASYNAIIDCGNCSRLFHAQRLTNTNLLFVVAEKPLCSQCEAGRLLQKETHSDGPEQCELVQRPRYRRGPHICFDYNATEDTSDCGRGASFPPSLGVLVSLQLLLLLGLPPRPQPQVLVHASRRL
α2δ-3 subunit, sequence (Q8IZS8 29-1091): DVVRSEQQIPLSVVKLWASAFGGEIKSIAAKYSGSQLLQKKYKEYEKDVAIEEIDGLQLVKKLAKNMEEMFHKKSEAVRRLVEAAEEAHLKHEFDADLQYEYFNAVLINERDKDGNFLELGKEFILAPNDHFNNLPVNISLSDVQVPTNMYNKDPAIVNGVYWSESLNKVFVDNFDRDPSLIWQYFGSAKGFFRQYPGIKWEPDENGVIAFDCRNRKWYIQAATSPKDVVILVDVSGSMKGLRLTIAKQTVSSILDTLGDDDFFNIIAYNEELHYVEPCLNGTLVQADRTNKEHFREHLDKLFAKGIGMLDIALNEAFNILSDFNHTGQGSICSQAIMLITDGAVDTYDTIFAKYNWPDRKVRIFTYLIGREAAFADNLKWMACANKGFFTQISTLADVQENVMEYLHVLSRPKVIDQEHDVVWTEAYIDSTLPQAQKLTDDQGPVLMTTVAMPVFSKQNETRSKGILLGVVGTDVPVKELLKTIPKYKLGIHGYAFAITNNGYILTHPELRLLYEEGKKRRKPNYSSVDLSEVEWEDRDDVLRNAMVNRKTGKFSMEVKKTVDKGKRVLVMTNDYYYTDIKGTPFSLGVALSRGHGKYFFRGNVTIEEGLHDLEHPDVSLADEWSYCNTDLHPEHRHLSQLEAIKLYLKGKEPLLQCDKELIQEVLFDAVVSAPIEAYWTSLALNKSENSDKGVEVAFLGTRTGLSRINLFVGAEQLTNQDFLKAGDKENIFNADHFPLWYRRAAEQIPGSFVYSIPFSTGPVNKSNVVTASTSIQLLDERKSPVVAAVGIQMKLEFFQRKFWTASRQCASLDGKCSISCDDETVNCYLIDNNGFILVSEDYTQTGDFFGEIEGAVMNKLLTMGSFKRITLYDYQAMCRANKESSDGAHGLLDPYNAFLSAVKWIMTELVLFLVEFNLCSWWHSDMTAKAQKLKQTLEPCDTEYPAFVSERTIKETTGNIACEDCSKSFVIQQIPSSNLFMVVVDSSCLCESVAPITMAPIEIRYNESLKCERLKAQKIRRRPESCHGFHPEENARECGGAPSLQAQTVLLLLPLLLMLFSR

In the case of `NCC1(CC(=O)O)CCCCC1` [gabapentin], the “binding to α2δ-3 subunit” value (α2δ-3 subunit) is given as “not” and the “binding to α2δ-2 subunit” value (α2δ-2 subunit) is given as “binds”.

For “IGF-1: IGF-1, reported to stimulate α2δ-3 expression in cultured rat atrial myocytes”, the “effect on α2δ-3 expression” value [1] is listed as “stimulates”.

B1: rat brain α2δ-2 subunit: α2δ-2 calcium channel subunit present in rat brain, SEQ. ID. NO:3, 1,150 amino acids, expressed from cDNA (protein, listed as Rattus norvegicus)
chain: MAVPARTCGASWPGPVRTARPWPGRGPRPCPDPRGPASGPARPLLLLLPPLLLLPLLTAPGASAYSFPQQHTMQHWARRLEQEIDGVMRIFGGVQQLREIYKDNRNLFDVQENEPQKLVEKVAGDIESLLDRKVQALKRLADAAENFQKAHRWQDNIKEEDIMYYDAKADAELDDPESEDMERGSKTSALRLDFIEEPNFKNKVNYSYTAVQIPTDIYKGSTVILNELNWTEALENVFIENRRQDPTLLWQVFGSATGVTRYYPATPWRAPKKIDLYDVRRRPWYIQGASSPKDMVIIVDVSGSVSGLTLKLMKTSVCEMLDTLSDDDYVNVASFNEKAQPVSCFTHLVQANVRNKKVFKEAVQGMVAKGTTGYKAGFEYAFDQLQNSNITRANCNKMIMMFTDGGEDRVQDVFEKYNWPNRTVRVFTFSVGQHNYDVTPLQWMACTNKGYYFEIPSIGAIRINTQEYLDVLGRPMVLAGKDAKQVQWTNVYEDALGLGLVVTGTLPVFNLTQDGPGEKKNQLILGVMGIDVALNDIKRLTPNYTLGANGYVFAIDLNGYVLLHPNLKPQTTNFREPVTLDFLDAELEDENKEEIRRSMIDEDKGHKQIRTLVKSLDERYIDEVIRNYTWVPIRSTNYSLGLVLPPYSTYYLQANLSDQILQVKYFEFLLPSSFESEGHVFIAPREYCKDLNASDNNTEFLKNFIELMEKVTPDSKQCNNFLLHNLILDTGITQQLVERVWRDQDLNTYSLLAVFAATDGAVTRVFPNKAAEDWTENPEPFNASFYRRSLDNRGYIFKPPHQDSLLRPLELENDTVGVLVSTAVELSLGRRTLRPAVVGVKLDLEAWAEKFKVLASNRTHQDQPQKQCGPSSHCEMDCEVNNEDLLCVLIDDGGFLVLSNQNHQWDQVGRFFSEVDANLMLALYNNSFYTRKESYDYQAACAPQPPGNLGAAPRGVFVPTIADFLNLAWWTSAAAWSLFQQLLYGLIYHSWFQADPAEAEGSPETRESSCVMKQTQYYFGSVNASYNAIIDCGNCSRLFHAQRLTNTNLLFVVAEKPLCSQCEVGRLLQKETHCPADGPEQCELVQRPRYRRGPHICFDYNATEDTSDCGRGTSFPPSLGVLVSLQLLLLLGLPPRPQPQIHSFAASRRL
In the case of B1, the “mean current density (Ipeak/cell capacitance)” value ([2]; rat α1B+β1b coexpressed with rat brain α2δ-2 in HEK 293 cells, test potential +20 mV from holding −80 mV, 7 cells, mean±S.E.M, without α2δ-2: −7.2±2.3) is reported as −30.0±4.1 pA/pF and the “increase of rat α1B+β1b current density” value ([2]; with versus without coexpressed α2δ-2, P=0.01) is reported as ~4 fold.
